Measurements: ChEMBL document CHEMBL1201862, “PubChem BioAssay data set” (2004)
Values belong to the compound of their own block, whether it stands above or below them. Activity calls are given as the source filed them.

Experiments:
Aspartyl aminopeptidase = molecular target: T1, Aspartyl aminopeptidase (Plasmodium falciparum 3D7, UniProt Q8I2J3); assay: Counterscreen for inhibitors of M1 and M17 aminopeptidases: QFRET-based biochemical high throughput dose response assay for inhibitors of the Plasmodium falciparum M18 Aspartyl Aminopeptidase (PFM18AAP). [Related PubChem assays: 1619 (Screening assay (M17LAP inhibitors).), 1445 (Screening assay (M1AAP inhibitors).)]
T1 sequence (Q8I2J3 whole entry): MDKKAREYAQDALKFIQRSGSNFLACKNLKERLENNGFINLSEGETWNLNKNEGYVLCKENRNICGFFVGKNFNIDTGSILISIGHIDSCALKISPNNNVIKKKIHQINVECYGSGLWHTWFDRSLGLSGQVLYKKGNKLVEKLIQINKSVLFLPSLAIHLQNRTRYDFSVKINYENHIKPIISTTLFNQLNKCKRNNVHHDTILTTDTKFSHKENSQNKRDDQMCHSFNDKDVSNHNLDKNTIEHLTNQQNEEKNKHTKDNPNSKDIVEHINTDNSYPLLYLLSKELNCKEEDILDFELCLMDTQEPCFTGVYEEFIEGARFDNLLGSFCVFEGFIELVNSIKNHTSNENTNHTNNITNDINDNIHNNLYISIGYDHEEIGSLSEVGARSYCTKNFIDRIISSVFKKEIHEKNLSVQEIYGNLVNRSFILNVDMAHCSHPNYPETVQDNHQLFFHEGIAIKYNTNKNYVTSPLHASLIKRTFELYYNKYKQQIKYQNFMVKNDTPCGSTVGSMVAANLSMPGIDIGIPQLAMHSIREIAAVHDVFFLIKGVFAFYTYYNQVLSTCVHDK

Aminopeptidase N = molecular target: T2, Aminopeptidase N (Plasmodium falciparum FcB1/Columbia, UniProt O96935); assay: malaria alanyl aminopeptidase activity blockers – biochemical, fluorogenic H-Leu-NHMec substrate, 1536-well (AID 1445); parameters: species or system Plasmodium falciparum 3D7, 3D7
T2 sequence (O96935 whole entry): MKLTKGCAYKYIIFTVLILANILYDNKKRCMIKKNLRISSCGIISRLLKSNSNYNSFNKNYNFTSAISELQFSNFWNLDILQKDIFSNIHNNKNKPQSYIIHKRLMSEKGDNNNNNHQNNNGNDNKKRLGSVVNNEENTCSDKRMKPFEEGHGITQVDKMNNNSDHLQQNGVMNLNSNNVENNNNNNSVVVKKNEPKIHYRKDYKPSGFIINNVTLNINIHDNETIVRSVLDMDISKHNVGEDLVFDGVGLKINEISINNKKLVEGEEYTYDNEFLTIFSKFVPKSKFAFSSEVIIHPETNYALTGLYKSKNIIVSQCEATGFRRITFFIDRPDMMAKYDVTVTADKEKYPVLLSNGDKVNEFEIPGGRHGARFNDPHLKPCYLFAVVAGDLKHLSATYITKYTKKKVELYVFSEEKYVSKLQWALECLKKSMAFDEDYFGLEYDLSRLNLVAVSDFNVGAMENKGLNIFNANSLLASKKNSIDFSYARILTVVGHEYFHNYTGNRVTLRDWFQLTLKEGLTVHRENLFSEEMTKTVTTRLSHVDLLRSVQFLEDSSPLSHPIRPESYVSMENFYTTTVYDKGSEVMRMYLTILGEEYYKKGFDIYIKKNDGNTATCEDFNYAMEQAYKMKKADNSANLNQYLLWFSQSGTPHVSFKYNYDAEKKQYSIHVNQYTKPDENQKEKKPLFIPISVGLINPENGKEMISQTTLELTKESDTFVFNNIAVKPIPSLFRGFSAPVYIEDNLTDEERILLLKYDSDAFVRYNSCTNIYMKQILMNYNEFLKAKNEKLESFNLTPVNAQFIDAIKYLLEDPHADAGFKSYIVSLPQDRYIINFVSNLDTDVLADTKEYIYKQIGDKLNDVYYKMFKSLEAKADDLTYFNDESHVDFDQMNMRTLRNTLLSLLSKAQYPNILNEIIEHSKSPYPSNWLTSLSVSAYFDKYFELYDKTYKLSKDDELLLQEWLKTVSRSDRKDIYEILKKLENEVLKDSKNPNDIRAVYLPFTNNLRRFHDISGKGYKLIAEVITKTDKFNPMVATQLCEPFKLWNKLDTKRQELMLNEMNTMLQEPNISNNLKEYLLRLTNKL

Procathepsin L = Procathepsin L (Homo sapiens, UniProt P07711); assay: CTSL1 protease inhibition – biochemical, QFRET, 1536-well, counter-screen for M1/M17 aminopeptidase inhibitor project, dose response (AID 2214)
[1] = Trypanosoma cruzi growth suppression in host cells – NIH3T3 host cells, beta-gal luminescence, confirmation (AID 2044); format: functional, cell-based;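 further: intracellular parasites grown in NIH/3T3 mouse fibroblasts as host cells; luminescent beta-galactosidase reporter signal from transgenic T. cruzi replicating inside host cells; inhibitors lower the luminescence signal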
[2] = NIH3T3 cell viability loss – ATP luminescence, mouse fibroblasts, counter-screen, dose response (AID 2010); format: functional, cell-based;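 further: cells exposed to compound for about 90 hours before reading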
Estrogen receptor = molecular target: T3, Estrogen receptor (Homo sapiens, UniProt P03372);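 further: potency for inhibiting coactivator peptide recruitment to the receptor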
T3 sequence (P03372 whole entry): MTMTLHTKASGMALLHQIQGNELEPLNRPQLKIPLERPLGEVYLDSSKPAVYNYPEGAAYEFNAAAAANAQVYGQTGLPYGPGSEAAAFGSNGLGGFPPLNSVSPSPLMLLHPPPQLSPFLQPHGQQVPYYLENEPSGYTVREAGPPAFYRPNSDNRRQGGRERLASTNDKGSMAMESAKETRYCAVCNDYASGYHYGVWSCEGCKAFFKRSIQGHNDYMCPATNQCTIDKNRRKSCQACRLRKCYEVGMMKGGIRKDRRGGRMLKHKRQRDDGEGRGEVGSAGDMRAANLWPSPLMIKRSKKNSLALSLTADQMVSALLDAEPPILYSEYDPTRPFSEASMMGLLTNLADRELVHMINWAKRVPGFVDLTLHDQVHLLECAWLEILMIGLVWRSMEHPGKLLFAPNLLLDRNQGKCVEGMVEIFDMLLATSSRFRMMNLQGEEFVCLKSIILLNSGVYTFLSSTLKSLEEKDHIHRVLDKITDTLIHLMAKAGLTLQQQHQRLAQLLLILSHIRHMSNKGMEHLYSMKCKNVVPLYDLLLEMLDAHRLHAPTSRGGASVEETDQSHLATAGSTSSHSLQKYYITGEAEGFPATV

[3] = P. falciparum Dd2 growth inhibitors, dose response, SYBR Green, cherry-picked samples (AID 1159567); format: functional, cell-based
[4] = toxicity to human hepatoma HepG2 cells – cell-based, cherry-picked samples, cytotoxicity control, dose response (AID 1159577); format: functional
Cytochrome P450 2D6 = Cytochrome P450 2D6 (Homo sapiens, UniProt P10635); assay: qHTS Assay for Inhibitors and Substrates of Cytochrome P450 2D6. [Related pubchem assays: 410 ]; format: ADME; conditions: read-out: Potency
Leucine aminopeptidase = molecular target: T4, Leucine aminopeptidase (Plasmodium falciparum 3D7, UniProt Q8IL11); assay: P. falciparum M17LAP inhibitors, primary screen, biochemical, fluorogenic H-Leu-NHMec substrate, 1536-well (AID 1619); format: functional
T4 sequence (Q8IL11 whole entry): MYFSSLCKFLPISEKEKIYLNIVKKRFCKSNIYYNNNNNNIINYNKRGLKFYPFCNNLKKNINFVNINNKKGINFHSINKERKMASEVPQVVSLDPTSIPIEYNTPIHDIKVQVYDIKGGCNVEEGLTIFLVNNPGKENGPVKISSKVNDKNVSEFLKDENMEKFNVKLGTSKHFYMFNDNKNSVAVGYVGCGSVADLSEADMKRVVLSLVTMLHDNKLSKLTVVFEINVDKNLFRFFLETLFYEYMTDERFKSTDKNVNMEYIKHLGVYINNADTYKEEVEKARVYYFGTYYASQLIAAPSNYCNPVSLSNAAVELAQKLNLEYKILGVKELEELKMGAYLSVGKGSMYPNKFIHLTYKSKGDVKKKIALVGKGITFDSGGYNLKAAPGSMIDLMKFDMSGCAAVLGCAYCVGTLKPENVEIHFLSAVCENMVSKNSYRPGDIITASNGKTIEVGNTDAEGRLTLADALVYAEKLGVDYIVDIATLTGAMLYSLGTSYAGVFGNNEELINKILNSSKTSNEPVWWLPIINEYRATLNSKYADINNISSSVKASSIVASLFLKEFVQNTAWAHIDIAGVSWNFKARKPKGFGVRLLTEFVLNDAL

[5] = molecular target: NAD-dependent protein deacylase sirtuin-5, mitochondrial (Homo sapiens, UniProt Q9NXA8); assay: sirtuin-5 deacylation blockers, concentration series – biochemical, fluorescence imaging, cherry-pick, set 5, dose response (AID 720591);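 further: desuccinylation of succinyl peptide AMC substrate read as fluorescence after trypsin release; potency of inhibitors that lower fluorescence and may act on trypsin instead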
[6] = molecular target: Metabotropic glutamate receptor 5 (Rattus norvegicus, UniProt P31424); assay: Identification of a glycine sulfonamide based non-MPEP site positive allosteric potentiator (PAM) of mGlu5 (calcium_assay).; format: functional
[7] = molecular target: Luciferin 4-monooxygenase (Photinus pyralis, UniProt P08659); assay: Counter Screen for Luciferase-based Assay Positives. [Related pubchem assays: 620, 618, 411 ]
[8] = molecular target: Glyceraldehyde-3-phosphate dehydrogenase (Homo sapiens, UniProt P04406)
HT-1080 = assay: HT1080 cell viability loss – fluorescence readout (AID 620); format: functional, cell-based; conditions: Homo sapiens
[9] = molecular target: T5, Corticotropin-releasing factor receptor 2/Corticotropin-releasing factor-binding protein (Homo sapiens, UniProt P24387+Q13324); assay: activators of CRF receptor 2 with binding protein – uHTS hits, confirmation (AID 602473); format: functional; conditions: read-out: EC50_Mean
T5 sequence (Q13324 whole entry): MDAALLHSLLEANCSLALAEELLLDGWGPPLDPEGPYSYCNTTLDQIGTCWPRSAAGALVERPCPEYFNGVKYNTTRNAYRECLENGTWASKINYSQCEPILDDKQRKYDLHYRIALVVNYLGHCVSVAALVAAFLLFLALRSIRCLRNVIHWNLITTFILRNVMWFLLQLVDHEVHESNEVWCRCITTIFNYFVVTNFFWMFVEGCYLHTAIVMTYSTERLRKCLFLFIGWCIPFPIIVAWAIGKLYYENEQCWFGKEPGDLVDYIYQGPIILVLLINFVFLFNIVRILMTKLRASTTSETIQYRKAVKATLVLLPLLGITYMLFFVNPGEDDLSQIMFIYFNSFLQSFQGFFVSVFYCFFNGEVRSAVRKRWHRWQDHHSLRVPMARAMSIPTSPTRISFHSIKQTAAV
T5 sequence (P24387 whole entry): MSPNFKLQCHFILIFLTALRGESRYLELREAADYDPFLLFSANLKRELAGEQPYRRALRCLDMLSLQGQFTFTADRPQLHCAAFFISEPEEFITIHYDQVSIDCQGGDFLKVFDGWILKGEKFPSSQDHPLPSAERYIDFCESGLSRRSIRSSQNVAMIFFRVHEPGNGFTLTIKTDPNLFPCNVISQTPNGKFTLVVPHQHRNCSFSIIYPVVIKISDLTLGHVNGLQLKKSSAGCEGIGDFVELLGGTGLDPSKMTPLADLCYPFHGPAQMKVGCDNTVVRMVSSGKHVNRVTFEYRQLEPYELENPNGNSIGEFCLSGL

[10] = reduction of Shn3 3'UTR-driven luciferase in osteoblasts – cell-based, Clone20 osteoblasts, firefly luciferase, cherry-picked, dose response (AID 624132); format: functional;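 further: firefly luciferase luminescence from reporter carrying the Shn3 3'UTR in osteoblasts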
[11] = Shn3 3'UTR reporter signal decrease – cell-based, Clone20 osteoblasts, firefly luciferase, cherry-pick, set 2, Schnurri-3 inhibitor project, dose response (AID 720490); format: functional;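 further: actives lower the luminescence signal as inhibitors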
[12] = molecular target: Neurotensin receptor type 1 (Homo sapiens, UniProt P30989); format: functional;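 further: Image-based confirmatory dose-response assay measuring agonist activity at NTR1; NTR1-expressing U2OS osteosarcoma cells imaged for beta-arrestin GFP spot formation; agonist potency where compounds increase beta-arrestin recruitment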
Neurotensin receptor type 1, sequence (P30989 whole entry): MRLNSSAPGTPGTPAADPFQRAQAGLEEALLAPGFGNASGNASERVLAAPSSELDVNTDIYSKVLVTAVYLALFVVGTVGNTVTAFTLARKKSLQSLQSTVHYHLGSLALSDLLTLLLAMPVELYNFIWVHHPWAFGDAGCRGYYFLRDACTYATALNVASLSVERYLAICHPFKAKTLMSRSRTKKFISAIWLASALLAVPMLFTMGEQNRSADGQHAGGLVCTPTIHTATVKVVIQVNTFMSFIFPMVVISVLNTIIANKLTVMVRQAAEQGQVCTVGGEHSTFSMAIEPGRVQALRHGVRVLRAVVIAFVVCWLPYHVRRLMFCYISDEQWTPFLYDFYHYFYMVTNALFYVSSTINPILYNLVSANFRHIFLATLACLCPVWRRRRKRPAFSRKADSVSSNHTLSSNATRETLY

Procathepsin L, sequence (P07711 whole entry): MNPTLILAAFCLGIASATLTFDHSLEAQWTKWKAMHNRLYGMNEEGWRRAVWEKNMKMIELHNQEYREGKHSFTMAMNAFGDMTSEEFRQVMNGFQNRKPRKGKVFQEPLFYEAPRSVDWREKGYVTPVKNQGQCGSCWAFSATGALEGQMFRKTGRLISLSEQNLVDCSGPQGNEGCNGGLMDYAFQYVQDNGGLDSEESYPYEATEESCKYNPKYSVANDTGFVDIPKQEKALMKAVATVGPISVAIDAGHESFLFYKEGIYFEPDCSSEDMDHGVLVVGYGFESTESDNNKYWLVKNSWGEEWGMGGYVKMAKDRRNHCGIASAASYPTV
Metabotropic glutamate receptor 5, sequence (P31424 whole entry): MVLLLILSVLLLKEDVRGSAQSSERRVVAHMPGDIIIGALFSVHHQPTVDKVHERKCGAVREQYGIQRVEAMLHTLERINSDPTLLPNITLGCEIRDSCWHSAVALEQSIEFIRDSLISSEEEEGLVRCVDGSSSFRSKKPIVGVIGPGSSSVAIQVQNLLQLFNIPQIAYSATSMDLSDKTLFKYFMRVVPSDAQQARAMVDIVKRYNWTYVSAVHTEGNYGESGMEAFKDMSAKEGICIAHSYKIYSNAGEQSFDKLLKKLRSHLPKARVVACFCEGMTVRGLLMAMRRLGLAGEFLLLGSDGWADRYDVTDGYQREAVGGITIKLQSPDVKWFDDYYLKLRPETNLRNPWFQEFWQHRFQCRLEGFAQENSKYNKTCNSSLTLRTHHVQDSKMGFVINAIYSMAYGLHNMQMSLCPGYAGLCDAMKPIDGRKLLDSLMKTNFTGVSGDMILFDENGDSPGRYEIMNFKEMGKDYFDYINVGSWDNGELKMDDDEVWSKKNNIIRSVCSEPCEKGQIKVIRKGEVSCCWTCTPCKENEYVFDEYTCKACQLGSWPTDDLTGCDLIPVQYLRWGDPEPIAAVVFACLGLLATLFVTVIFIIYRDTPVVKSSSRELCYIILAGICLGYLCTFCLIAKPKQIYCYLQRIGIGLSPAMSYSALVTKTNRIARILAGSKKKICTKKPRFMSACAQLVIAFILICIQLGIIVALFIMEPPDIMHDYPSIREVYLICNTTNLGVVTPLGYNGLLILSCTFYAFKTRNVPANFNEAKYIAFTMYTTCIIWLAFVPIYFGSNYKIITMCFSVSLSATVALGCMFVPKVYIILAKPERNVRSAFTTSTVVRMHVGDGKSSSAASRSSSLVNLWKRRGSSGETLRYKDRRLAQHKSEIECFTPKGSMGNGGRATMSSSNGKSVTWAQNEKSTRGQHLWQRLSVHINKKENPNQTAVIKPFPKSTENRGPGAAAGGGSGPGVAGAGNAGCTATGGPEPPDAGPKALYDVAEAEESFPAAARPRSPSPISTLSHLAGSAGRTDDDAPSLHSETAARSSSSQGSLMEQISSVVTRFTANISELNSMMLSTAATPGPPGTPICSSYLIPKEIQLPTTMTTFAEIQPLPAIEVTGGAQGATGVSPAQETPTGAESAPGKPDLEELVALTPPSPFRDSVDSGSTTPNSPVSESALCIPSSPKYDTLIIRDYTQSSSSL
NAD-dependent protein deacylase sirtuin-5, mitochondrial, sequence (Q9NXA8 whole entry): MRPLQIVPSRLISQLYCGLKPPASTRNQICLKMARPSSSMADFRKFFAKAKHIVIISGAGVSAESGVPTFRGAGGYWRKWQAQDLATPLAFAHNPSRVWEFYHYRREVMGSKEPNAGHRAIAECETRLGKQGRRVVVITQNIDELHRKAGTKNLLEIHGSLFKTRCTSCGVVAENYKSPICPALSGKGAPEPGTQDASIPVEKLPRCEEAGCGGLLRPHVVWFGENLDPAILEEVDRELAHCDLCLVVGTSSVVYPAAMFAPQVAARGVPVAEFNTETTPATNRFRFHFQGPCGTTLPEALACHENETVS
Luciferin 4-monooxygenase, sequence (P08659 whole entry): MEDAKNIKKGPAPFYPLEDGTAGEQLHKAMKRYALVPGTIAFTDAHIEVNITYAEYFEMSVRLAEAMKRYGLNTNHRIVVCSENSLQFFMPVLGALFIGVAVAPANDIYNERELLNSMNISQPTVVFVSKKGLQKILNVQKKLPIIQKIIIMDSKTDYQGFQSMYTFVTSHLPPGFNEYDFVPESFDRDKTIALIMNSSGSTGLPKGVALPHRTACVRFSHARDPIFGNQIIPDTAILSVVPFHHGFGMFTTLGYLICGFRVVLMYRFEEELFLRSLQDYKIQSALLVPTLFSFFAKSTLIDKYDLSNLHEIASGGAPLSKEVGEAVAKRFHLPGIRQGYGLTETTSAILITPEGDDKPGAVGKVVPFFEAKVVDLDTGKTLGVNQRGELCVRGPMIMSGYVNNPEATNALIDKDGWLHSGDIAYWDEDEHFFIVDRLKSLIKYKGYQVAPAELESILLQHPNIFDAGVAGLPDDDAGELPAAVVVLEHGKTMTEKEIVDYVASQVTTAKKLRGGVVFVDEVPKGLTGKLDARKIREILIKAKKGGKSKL
Cytochrome P450 2D6, sequence (P10635 whole entry): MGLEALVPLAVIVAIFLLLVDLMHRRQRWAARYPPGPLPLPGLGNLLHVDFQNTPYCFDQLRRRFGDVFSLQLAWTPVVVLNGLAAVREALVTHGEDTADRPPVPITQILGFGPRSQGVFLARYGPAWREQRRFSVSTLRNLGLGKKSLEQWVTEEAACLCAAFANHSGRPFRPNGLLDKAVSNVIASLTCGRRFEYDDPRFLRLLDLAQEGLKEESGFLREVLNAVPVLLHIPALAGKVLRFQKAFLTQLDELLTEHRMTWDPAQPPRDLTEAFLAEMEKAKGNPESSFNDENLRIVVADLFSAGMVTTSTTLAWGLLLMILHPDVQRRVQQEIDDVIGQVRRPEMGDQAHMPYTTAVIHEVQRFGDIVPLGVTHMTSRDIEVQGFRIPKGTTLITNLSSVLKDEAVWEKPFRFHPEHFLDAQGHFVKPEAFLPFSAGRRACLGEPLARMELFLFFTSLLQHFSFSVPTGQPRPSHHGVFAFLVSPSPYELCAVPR
Glyceraldehyde-3-phosphate dehydrogenase, sequence (P04406 whole entry): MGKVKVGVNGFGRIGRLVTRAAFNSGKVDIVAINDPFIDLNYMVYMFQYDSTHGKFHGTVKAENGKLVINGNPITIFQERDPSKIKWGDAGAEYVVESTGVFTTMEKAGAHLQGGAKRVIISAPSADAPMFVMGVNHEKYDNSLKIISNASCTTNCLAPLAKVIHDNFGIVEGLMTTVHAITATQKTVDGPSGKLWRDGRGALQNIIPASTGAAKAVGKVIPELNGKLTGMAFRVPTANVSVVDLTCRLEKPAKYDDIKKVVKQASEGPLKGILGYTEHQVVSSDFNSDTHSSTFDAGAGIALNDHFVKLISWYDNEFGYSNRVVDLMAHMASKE

IC50 (Aspartyl aminopeptidase): > 73.5 µM (not active) | IC50 (Aminopeptidase N): 8.54 µM (active) | IC50 (Procathepsin L): > 59.6 µM (not active)
Compound: O=C(Nn1c(C2CCC2)nc2ccccc2c1=O)c1cccs1

Compound: O=C(CCCn1cnc([N+](=O)[O-])n1)Nc1ccc(F)c(Cl)c1
EC50 [1]: < 100 nM (active) | EC50 [2]: > 60 µM (not active) | EC50 (cells): 98 nM (active)

IC50 (Estrogen receptor): 24.8 µM (active)
Compound: COc1ccc2cc3c(N)nn(C(=O)Cc4ccc(Cl)cc4)c3nc2c1

Compound: Cc1ccc(S(=O)(=O)CC(=O)N(CCCN(C)C)c2nc3ccc(C)cc3s2)cc1
EC50 [1]: < 100 nM (active) | EC50 [2]: > 30 µM (not active) | EC50 (cells): 60 nM (active)

IC50 (Estrogen receptor): 18 µM (active)
Compound: O=S(=O)(NCc1csc(-c2cccnc2)n1)c1cccs1

Compound: COc1cccc(CN2C[C@@H]3N[C@H](C2)[C@@H]3c2ccc(-c3ccncc3)cc2)c1
AC50 [3]: 4.63 µM (active) | AC50 [4]: > 39 µM (inactive)

AC50 (Cytochrome P450 2D6): 20 µM (inconclusive)
Compound: Cc1ccc(C(=O)[C@@H]2[C@@H]3[C@@H](C(=O)[C@@H]4OC[C@H]3O4)[C@@H]3C=Cc4ccccc4N23)cc1

IC50 (Leucine aminopeptidase): 4.06 µM (active) | IC50 (Aspartyl aminopeptidase): > 73.5 µM (not active) | IC50 (Procathepsin L): > 59.6 µM (not active)
Compound: C=CCn1c(SCC(=O)Nc2cccc3ccccc23)nc(=O)c(CC)c1O

AC50 [5]: > 30 µM (inactive)
Compound: Cc1cc(=O)oc2c(C)c(OC(C)C(=O)NCCCN3CCCC3=O)ccc12 (stereo not drawn)

Compound: CC(C)Oc1ccc(CNCCC2(C(C)C)CCOC(C)(C)C2)cc1 (stereo not drawn)
EC50 [1]: < 100 nM (active) | EC50 [2]: > 60 µM (not active) | EC50 (cells): 154 nM (active)

EC50 [6]: > 30 µM (inactive)
Compound: CC(C)NC(=O)CN(c1ccccc1Cl)S(C)(=O)=O

IC50 (Leucine aminopeptidase): 5.9 µM (active) | IC50 (Aspartyl aminopeptidase): > 73.5 µM (not active) | IC50 (Procathepsin L): > 59.6 µM (not active)
Compound: Cc1ccc(NC(=O)CSc2nc(O)c3c(n2)CCC3)cc1C

Compound: COCCn1c(C)cc(C(=O)CSc2ccc(NC(C)=O)cc2)c1C
EC50 [7]: 3.66 µM (active) | IC50 [8]: > 100 µM (not active) | EC50 (HT-1080): > 50 µM (not active) | EC50 [9]: > 53 µM (inactive)

AC50 [5]: > 30 µM (inactive)
Compound: CC(C(=O)NC(N)=O)N1C(=O)NC(c2ccccc2)(c2ccccc2)C1=O (stereo not drawn)

Compound: CCCCN1CC(COCc2ccccc2)Oc2cccc(Oc3ccc(C(C)C)cc3)c2S1(=O)=O (stereo not drawn)
AC50 [10]: 5.03 µM (active) | AC50 [11]: 4.4 µM (active)

EC50 [12]: 18.9 µM (active)
Compound: COC(=O)c1ccc(/C=C/C(=O)OCC(=O)Nc2sccc2C(N)=O)cc1

Compound: CCCCN(C)C(=O)c1cc2cc3ccc(OC)cc3nc2s1
EC50 [7]: 0.22 µM (active) | EC50 (HT-1080): > 50 µM (not active)

EC50 [6]: 4.43 µM
Compound: CS(=O)(=O)N1c2ccccc2CCC1C(=O)Nc1nccs1 (stereo not drawn)

Compound: N#Cc1ccc(-c2ccc([C@@H]3[C@@H]4CN(Cc5ccccc5F)C[C@H]3N4)cc2)cc1
AC50 [3]: 1.88 µM (active) | AC50 [4]: 9.39 µM (active)
